In article PMC6600545, “Novel Peptide-Based Inhibitors for Microtubule Polymerization in Phytophthora capsici” (International Journal of Molecular Sciences, 2019):
Values joined by “and” are separate entries in the source; they are usually repeats but may differ in a detail not shown here. Identical values can stand only once. Peptide text beside a SMILES is read from it. * marks the point of attachment. FITC = O=C1OC2(c3ccc(O)cc3Oc3cc(O)ccc32)c2ccc(NC(=S)*)cc21

What was measured:
[1] = cited from earlier work
Source text: In the past decade, several new chemical classes which display potent antifungal activity targeting fungal α, β-tubulin have been developed such as zoxamide, inhibiting β-tubulin in Phytophthora sojae (P. sojae); methyl benzimidazole carbamate, (MBC) inhibiting β-tubulin in Podosphaera xanthii (P. xanthii); and benomyl. One of these microtubule-targeted fungicides is benomyl. In the presence of benomyl, the polymerization of tubulin to microtubules is inhibited resulting in retarded cell division.

P. capsici α, β-tubulin [2] = test: ELISA binding affinity of phages displaying tubulin-binding peptides (anti-M13 antibody); set-up: species or system Phytophthora capsici; details: phage displaying the peptide, 5 μg tubulin per well, OD 450 nm
Experimental: Phage display was conducted with the M13 phage library in an effort to identify specific binding peptides to α, β-tubulin proteins from P. capsici. After five rounds of biopanning toward each target protein, 169 phage clones for α-tubulin and 112 for β-tubulin were selected. […] Testing was done for all the phages with different sequences to estimate their binding affinities for α, β-tubulins of P. capsici.
Phages displaying α, β-tubulin binding peptides were prepared, and their concentrations were determined by measurement of plaque-forming units (pfu) per volume. The binding affinities of phages displaying α, β-tubulin binding peptides were determined by the ELISA method, as described previously. Briefly, α, β-tubulin binding peptides were added in a concentration-dependent manner to a 96-well plate containing α, β-tubulin protein (5 μg per well), as indicated. The wells were then washed 10 times with 1X TBST (50 mM Tris-HCl, pH 7.5, 150 mM NaCl, and 0.1% Tween-20), followed by probing with an anti-M13 antibody (mouse monoclonal antibody, 1:5000 in 1X TBST, 0.2 μg·ml^−1; Amersham Bioscience, Little Chalfont, UK) for 1 h at room temperature. After washing five times with 1 X TBST buffer, anti-mouse IgG-horseradish peroxidase (HRP) conjugate was added, and the mixture was incubated for 1 h, followed by a color-developing reaction with tetramethylbenzidine (TMB) substrate solution ([TMB]/H2O2; Chemicon, Billerica, MA, USA). After 15 min, the reaction was terminated by the addition of 1 M H2SO4, and the optical densities were measured at 450 nm with a Biotrak multiwall plate reader (Amersham Bioscience).

[3] = molecular target: T1, P. capsici α, β-tubulin microtubule polymerization (Phytophthora capsici, UniProt A4ZYP2+A4ZYP4); test: Inhibition of microtubule polymerization by phages (turbidity at 350 nm); assay type: biochemical; details: phage 10 nM, 40 min reaction time
Experimental: As a next step, all 15 phages were used to determine whether the phages could inhibit the activity of microtubule polymerization of P. capsici. The concentration of each phage was constant at 10 nM, and the polymerization was measured after 40 min of reaction time.
(§1) The polymerization and inhibition of microtubule assembly were studied using a spectroscopic method. Purified α, β-tubulins were mixed with 120 μL of polymerization buffer (80 mM PIPES (pH 7.4), 1 mM EGTA, 1 mM MgCl2, and 5% v/v glycerol) to a final concentration of 0.5 mg/mL total tubulin in 300 μL final reaction mixture. The polymerization assay was initiated with the addition of 2.5 mM GTP, and the reaction was continued until it reached the saturation point for 40 min. The contents were mixed, and the resulting turbidity due to microtubule formation was measured at 350 nm using an Optizen 2120 UV spectrophotometer. […] Furthermore, the polymerization and inhibition of microtubule formation were also confirmed through sodium dodecyl sulfate–polyacrylamide gel electrophoresis (SDS-PAGE), Western blot, and transmission electron microscopy (TEM). For the TEM analysis, samples were prepared according to the protocol reported by Vulevic et al.. Briefly, 30 μL of the saturated product of the polymerization reaction was immediately diluted with 10 μL of 0.4% glutaraldehyde, and the mixture was incubated for 3 min at room temperature. Then, 10 μL of the solution was applied to a 200 mesh, copper/formvar-coated grid (EMS) for 1 min, which was sequentially washed using two drops of dH2O and stained for 2 min with a drop of 2% uranyl acetate. Excess stain was removed by blotting with filter paper. Samples were air-dried and later viewed under a TEM.

P. capsici α, β-tubulin [4] = test: Fluorometric binding affinity of FITC-labeled synthetic peptides; set-up: species or system Phytophthora capsici; details: FITC-labeled peptide, immobilised tubulin in 96-well plate, 2 h, ex 495 / em 520 nm
Source text: These peptides were synthesized with FITC-label for detection of the difference in the fluorescence by the absence and presence of target binding using a fluorescence microplate reader (see the Materials and Methods).
(§2) Peptides were synthesized by AnyGen Inc. (Gwangju, Korea). To prevent unintended interaction with other molecules, the peptides used in this study were modified by acetylation at the N-terminus and amidation at the C-terminus. With the addition of a lysine residue, the peptides were labeled with FITC at the C-terminus. This labeling was used for the identification of the target binding property by means of fluorescence detection. The purity of the synthesized peptides was greater than 90%, as assessed by HPLC. The peptides were further characterized to estimate their binding affinity and specificity. Briefly, serial dilutions of FITC-labeled peptides were incubated with α, β-tubulin proteins immobilized on a 96-well plate for 2 h. The binding affinities of the FITC-labeled peptides were determined by a fluorescence microplate reader (Molecular Devices, Sunnyvale, CA, USA) using the soft Max V5 system, with excitation at 495 nm and emission at 520 nm. The specificities of identified peptides for the target proteins were evaluated using the same fluorometric method described above, incorporating homologous H. sapiens α, β-tubulin. BSA protein was used as a negative control.

H. sapiens α, β-tubulin = test: Fluorometric binding affinity of FITC-labeled synthetic peptides (specificity); details: FITC-labeled peptide, immobilised tubulin in 96-well plate, 2 h, ex 495 / em 520 nm
Source text: Investigation of the binding affinity for α, β-tubulins of H. sapiens to the synthesized peptides is necessary because peptide binding to H. sapiens tubulins could trigger severe toxicity in humans. First, α, β-tubulins of H. sapiens were individually overexpressed and purified (Figure 1). […] In addition, bovine serum albumin (BSA) was used as another control to confirm the specificity of the synthesized peptides. No significant binding fluorescence intensities for BSA were detected.
as §2

[5] = molecular target: T1, P. capsici α, β-tubulin microtubule polymerization; test: biochemical
Experimental: The IC50 values of the four synthetic peptides were determined by fitting the relative inhibition data via the below Equation (1), where V0 is the reaction rate without inhibitor, Vf is the rate at saturation inhibition, and [I] is the inhibitor concentration. (1) V=(V0−Vf)×IC50/IC50+[I]+Vf
as §1

[6] = test system: H. sapiens α, β-tubulin microtubule polymerization; test: Microtubule polymerization inhibition assay with synthetic peptides (turbidity at 350 nm); assay type: biochemical; details: 0.5 mg/mL total tubulin, 2.5 mM GTP, 40 min
Source text: (1) V=(V0−Vf)×IC50/IC50+[I]+Vf
Excess stain was removed by blotting with filter paper.

P. capsici microtubules = test: TEM analysis of polymerized microtubules; assay type: biochemical, Phytophthora capsici; details: polymerized for 40 min
Experimental: as §1, with “Excess stain was removed by blotting with filter paper. Samples were air-dried and later viewed under a TEM.” left out

T1 sequence (A4ZYP4 1-453): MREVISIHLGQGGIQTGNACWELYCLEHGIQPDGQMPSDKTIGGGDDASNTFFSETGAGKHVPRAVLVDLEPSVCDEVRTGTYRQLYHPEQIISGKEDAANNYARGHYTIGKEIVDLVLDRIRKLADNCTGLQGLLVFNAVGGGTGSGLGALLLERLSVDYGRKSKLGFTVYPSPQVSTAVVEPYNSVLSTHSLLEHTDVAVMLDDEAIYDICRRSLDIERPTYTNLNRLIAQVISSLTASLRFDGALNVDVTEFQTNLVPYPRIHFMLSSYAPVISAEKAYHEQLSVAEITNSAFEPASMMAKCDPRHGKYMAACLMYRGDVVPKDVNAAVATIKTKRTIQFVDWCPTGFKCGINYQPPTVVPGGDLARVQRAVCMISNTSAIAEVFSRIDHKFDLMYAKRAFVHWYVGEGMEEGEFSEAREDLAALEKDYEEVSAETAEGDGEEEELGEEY
T1 sequence (A4ZYP2 1-446): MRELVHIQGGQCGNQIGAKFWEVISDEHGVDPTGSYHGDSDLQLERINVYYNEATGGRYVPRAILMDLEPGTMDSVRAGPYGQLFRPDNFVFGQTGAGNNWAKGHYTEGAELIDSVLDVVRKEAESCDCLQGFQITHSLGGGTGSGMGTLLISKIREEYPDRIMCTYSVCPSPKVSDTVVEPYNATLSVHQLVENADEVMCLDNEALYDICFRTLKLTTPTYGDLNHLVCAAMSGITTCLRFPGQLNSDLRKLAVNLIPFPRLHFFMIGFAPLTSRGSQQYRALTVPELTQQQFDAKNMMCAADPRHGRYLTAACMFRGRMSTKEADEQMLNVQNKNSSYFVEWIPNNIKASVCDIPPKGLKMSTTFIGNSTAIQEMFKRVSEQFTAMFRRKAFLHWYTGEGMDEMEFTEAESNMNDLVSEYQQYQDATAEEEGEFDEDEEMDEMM

Compound | Kd (P. capsici α, β-tubulin [2]) [nM] | percent inhibition of microtubule polymerization [3] | other results
CCCCNC(=O)n1c(NC(=O)OC)nc2ccccc21 [benomyl] | – | – | solubility in water [1]: low solubility
CC[C@H](C)[C@H](NC(C)=O)C(=O)N[C@H](C(=O)N[C@@H](CCSC)C(=O)N[C@@H](CO)C(=O)N[C@H](C(=O)N1CCC[C@H]1C(=O)N[C@@H](C)C(=O)N[C@@H](Cc1c[nH]cn1)C(=O)N[C@@H](CC(N)=O)C(=O)N[C@@H](C)C(=O)N[C@@H](CCCCN)C(=O)N[C@@H](CCC(=O)O)C(=O)N[C@@H](CCCCNC(=S)Nc1ccc2c(c1)C(=O)OC21c2ccc(O)cc2Oc2cc(O)ccc21)C(N)=O)C(C)C)[C@@H](C)O [α_P1] (Ac-ITMSVPAHNAKEK(FITC)-NH2) | 0.0342 ± 0.00211 | 28% | Kd (P. capsici α, β-tubulin [4]): 69.5 ± 6.4 nM; Kd (H. sapiens α, β-tubulin): 134 ± 48.8 nM; IC50 [5]: 2690 nM
CC(=O)N[C@H](C(=O)N[C@@H](CC(N)=O)C(=O)N[C@H](C(=O)N[C@@H](CO)C(=O)N[C@@H](Cc1c[nH]c2ccccc12)C(=O)N[C@@H](CC(=O)O)C(=O)N1CCC[C@H]1C(=O)N[C@@H](CCC(N)=O)C(=O)N[C@@H](Cc1ccc(O)cc1)C(=O)N[C@@H](CC(N)=O)C(=O)N1CCC[C@H]1C(=O)N[C@@H](CC(=O)O)C(=O)N[C@@H](CCCCNC(=S)Nc1ccc2c(c1)C(=O)OC21c2ccc(O)cc2Oc2cc(O)ccc21)C(N)=O)[C@@H](C)O)[C@@H](C)O [α_P2] (Ac-TNTSWDPQYNPDK(FITC)-NH2) | 0.0801 ± 0.00113 | 54% | Kd (P. capsici α, β-tubulin [4]): 93.9 ± 11.2 nM; Kd (H. sapiens α, β-tubulin): 256 ± 31.1 nM; IC50 [5]: 802 nM; IC50 [6]: 2430 nM; microtubule morphology by TEM (P. capsici microtubules; 1 μM peptide): Amorphous morphology of microtubules occurred predominantly; microtubule formation by TEM (P. capsici microtubules; Ten micromolar peptide): completely inhibited the formation of microtubules
CC(=O)N[C@@H](CC(N)=O)C(=O)N[C@@H](Cc1c[nH]cn1)C(=O)N[C@@H](Cc1ccccc1)C(=O)N[C@H](C(=O)N1CCC[C@H]1C(=O)N[C@H](C(=O)N[C@@H](CO)C(=O)N[C@@H](CC(N)=O)C(=O)N[C@@H](CCCNC(=N)N)C(=O)N[C@@H](Cc1ccccc1)C(=O)N[C@@H](CC(N)=O)C(=O)N[C@@H](C)C(=O)N[C@@H](CCCCNC(=S)Nc1ccc2c(c1)C(=O)OC21c2ccc(O)cc2Oc2cc(O)ccc21)C(N)=O)[C@@H](C)O)C(C)C [α_P3] (Ac-NHFVPTSNRFNAK(FITC)-NH2) | 0.12 ± 0.00123 | 32% | Kd (P. capsici α, β-tubulin [4]): 79.2 ± 6.8 nM; Kd (H. sapiens α, β-tubulin): 162 ± 8.1 nM; IC50 [5]: 1240 nM; IC50 [6]: 4110 nM
CC(=O)N[C@H](C(=O)N[C@@H](CC(N)=O)C(=O)N1CCC[C@H]1C(=O)N[C@@H](CCC(N)=O)C(=O)N[C@@H](C)C(=O)N[C@@H](CCCNC(=N)N)C(=O)N[C@@H](Cc1c[nH]c2ccccc12)C(=O)N[C@@H](Cc1c[nH]cn1)C(=O)N[C@@H](CCC(=O)O)C(=O)N[C@@H](Cc1ccc(O)cc1)C(=O)N[C@@H](CC(N)=O)C(=O)N[C@@H](Cc1ccccc1)C(=O)N[C@@H](CCCCNC(=S)Nc1ccc2c(c1)C(=O)OC21c2ccc(O)cc2Oc2cc(O)ccc21)C(N)=O)[C@@H](C)O [β_P1] (Ac-TNPQARWHEYNFK(FITC)-NH2) | 0.0419 ± 0.00105 | 21% | Kd (P. capsici α, β-tubulin [4]): 49.7 ± 2.9 nM; Kd (H. sapiens α, β-tubulin): 455 ± 50.7 nM; IC50 [5]: 6910 nM
IGNSWPLTSHSW [α_P10, M13 phage clone displaying 12-mer […], selected against P. capsici α-tubulin] | 0.144 ± 0.0011 | – | –
KVYAINSWTNYY [α_P13, M13 phage clone displaying 12-mer […], selected against P. capsici α-tubulin] | 1.2 ± 0.0902 | – | –
LMNPATMKTSSG [α_P7, M13 phage clone displaying 12-mer […], selected against P. capsici α-tubulin] | 0.36 ± 0.00187 | – | –
MVHSKASMWPGK [α_P12, M13 phage clone displaying 12-mer […], selected against P. capsici α-tubulin] | 0.69 ± 0.00227 | – | –
NAITLLSPPLHK [α_P5] | 0.0571 ± 0.00177 | 5% and 4% | –
NFTINGKTHRLW [α_P4] | 0.298 ± 0.00145 | 19% | –
NPIGDNYSGTGL [β_P2] | 0.0371 ± 0.00141 | 2% | –
SNMKPSMEYSSR [α_P9, M13 phage clone displaying 12-mer […], selected against P. capsici α-tubulin] | 0.273 ± 0.00179 | – | –
SSHNHDSYHGTK [α_P6, M13 phage clone displaying 12-mer […], selected against P. capsici α-tubulin] | 0.476 ± 0.00273 | – | –
SYNTFMYERASK [α_P11, M13 phage clone displaying 12-mer […], selected against P. capsici α-tubulin] | 0.562 ± 0.00169 | – | –
TNTSWDPQYNPD [α_P8, M13 phage clone displaying 12-mer […]; (so in the source), selected against P. capsici α-tubulin] | 0.0476 ± 0.00251 | 4% | –
